Measurements published in PubChem BioAssay (NCI).
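GI50 = concentration required for 50% inhibition of growth. At the TGI there is no net growth.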

How the values were obtained:
Assay in all cases: growth of human tumour cells (NCI), 384-well format
786-0 renal = tested on: 786-0 renal
A498 renal = tested on: A498 renal
A549 NSCLC = tested on: A549 NSCLC
ACHN renal = tested on: ACHN renal
BT-549 breast = tested on: BT-549 breast
CAKI-1 renal = tested on: CAKI-1 renal
CCRF-CEM leukemia = tested on: CCRF-CEM leukemia
COLO 205 colon = tested on: COLO 205 colon
DU-145 prostate = tested on: DU-145 prostate
EKVX NSCLC = tested on: EKVX NSCLC
HCC-2998 colon = tested on: HCC-2998 colon
HCT-116 colon = tested on: HCT-116 colon
HCT-15 colon = tested on: HCT-15 colon
HL-60(TB) leukemia = tested on: HL-60(TB) leukemia
HOP-62 NSCLC = tested on: HOP-62 NSCLC
HOP-92 NSCLC = tested on: HOP-92 NSCLC
HS 578T breast = tested on: HS 578T breast
HT29 colon = tested on: HT29 colon
IGROV1 ovarian = tested on: IGROV1 ovarian
K-562 leukemia = tested on: K-562 leukemia
KM12 colon = tested on: KM12 colon
LOX IMVI melanoma = tested on: LOX IMVI melanoma
M14 melanoma = tested on: M14 melanoma
MALME-3M melanoma = tested on: MALME-3M melanoma
MCF7 breast = tested on: MCF7 breast
MDA-MB-231 breast = tested on: MDA-MB-231 breast
MDA-MB-435 melanoma = tested on: MDA-MB-435 melanoma
MDA-MB-468 breast = tested on: MDA-MB-468 breast
MOLT-4 leukemia = tested on: MOLT-4 leukemia
NCI-H226 lung = tested on: NCI-H226 lung
NCI-H23 lung = tested on: NCI-H23 lung
NCI-H322M lung = tested on: NCI-H322M lung
NCI-H460 NSCLC = tested on: NCI-H460 NSCLC
NCI-H522 lung = tested on: NCI-H522 lung
NCI/ADR-RES ovarian = tested on: NCI/ADR-RES ovarian
OVCAR-3 ovarian = tested on: OVCAR-3 ovarian
OVCAR-4 ovarian = tested on: OVCAR-4 ovarian
OVCAR-5 ovarian = tested on: OVCAR-5 ovarian
OVCAR-8 ovarian = tested on: OVCAR-8 ovarian
PC-3 prostate = tested on: PC-3 prostate
RPMI-8226 leukemia = tested on: RPMI-8226 leukemia
RXF 393 renal = tested on: RXF 393 renal
SF-268 CNS = tested on: SF-268 CNS
SF-295 CNS = tested on: SF-295 CNS
SF-539 CNS = tested on: SF-539 CNS
SK-MEL-28 melanoma = tested on: SK-MEL-28 melanoma
SK-MEL-5 melanoma = tested on: SK-MEL-5 melanoma
SK-OV-3 ovarian = tested on: SK-OV-3 ovarian
SN12C renal = tested on: SN12C renal
SNB-19 CNS = tested on: SNB-19 CNS
SNB-75 CNS = tested on: SNB-75 CNS
SR leukemia = tested on: SR leukemia
SW-620 colon = tested on: SW-620 colon
T-47D breast = tested on: T-47D breast
TK-10 renal = tested on: TK-10 renal
U251 glioblastoma = tested on: U251 glioblastoma
UACC-257 melanoma = tested on: UACC-257 melanoma
UACC-62 melanoma = tested on: UACC-62 melanoma
UO-31 renal = tested on: UO-31 renal

Cc1c(C(=O)Nc2ccc(Oc3ccnc4cc(OCC(C)(C)O)ccc34)c(F)c2)c(=O)n(-c2ccccc2)n1C
GI50 ([…]-0 renal): 5.8 µM
TGI (786-0 renal): 96.9 µM
GI50 (A498 renal): 3.58 µM
TGI (A498 renal): > 37.7 µM
GI50 (A549 NSCLC): 4.26 µM
TGI (A549 NSCLC): > 100 µM
GI50 (ACHN renal): 3.39 µM
TGI (ACHN renal): > 100 µM
GI50 (BT-549 breast): > 23.7 µM
TGI (BT-549 breast): > 65.3 µM
GI50 (CAKI-1 renal): 0.963 µM
TGI (CAKI-1 renal): > 39 µM
GI50 (CCRF-CEM leukemia): 2.61 µM
TGI (CCRF-CEM leukemia): 7.97 µM
GI50 (COLO 205 colon): 2.26 µM
TGI (COLO 205 colon): 6.93 µM
GI50 (DU-145 prostate): 6.27 µM
TGI (DU-145 prostate): > 100 µM
GI50 (EKVX NSCLC): 2.61 µM
TGI (EKVX NSCLC): 8.53 µM
GI50 (HCC-2998 colon): > 31.1 µM
TGI (HCC-2998 colon): > 100 µM
GI50 (HCT-116 colon): 3.97 µM
TGI (HCT-116 colon): > 100 µM
GI50 (HCT-15 colon): 4.13 µM
TGI (HCT-15 colon): > 69.6 µM
GI50 (HL-60(TB) leukemia): 3.5 µM
TGI (HL-60(TB) leukemia): 6.78 µM
GI50 (HOP-62 NSCLC): 2.34 µM
TGI (HOP-62 NSCLC): > 22.5 µM
GI50 (HOP-92 NSCLC): 2.36 µM
TGI (HOP-92 NSCLC): > 25.8 µM
GI50 (HS 578T breast): 1.86 µM
TGI (HS 578T breast): 4.85 µM
GI50 (HT29 colon): 2.55 µM
TGI (HT29 colon): > 100 µM
GI50 (IGROV1 ovarian): 4.3 µM
TGI (IGROV1 ovarian): > 100 µM
GI50 (K-562 leukemia): 0.152 µM
TGI (K-562 leukemia): 0.391 µM
GI50 (KM12 colon): 0.258 µM
TGI (KM12 colon): > 100 µM
GI50 (LOX IMVI melanoma): 2.65 µM
TGI (LOX IMVI melanoma): > 44 µM
GI50 (M14 melanoma): 2.68 µM
TGI (M14 melanoma): > 22.7 µM
GI50 (MALME-3M melanoma): 2.11 µM
TGI (MALME-3M melanoma): 5.14 µM
GI50 (MCF7 breast): 3.5 µM
TGI (MCF7 breast): > 38.9 µM
GI50 (MDA-MB-231 breast): 3.26 µM
TGI (MDA-MB-231 breast): > 30.4 µM
GI50 (MDA-MB-435 melanoma): 3.31 µM
TGI (MDA-MB-435 melanoma): > 31.4 µM
GI50 (MDA-MB-468 breast): 1.62 µM
TGI (MDA-MB-468 breast): 4.86 µM
GI50 (MOLT-4 leukemia): 1.46 µM
TGI (MOLT-4 leukemia): 3.66 µM
GI50 (NCI-H226 lung): 1.93 µM
TGI (NCI-H226 lung): 7.08 µM
GI50 (NCI-H23 lung): 1.52 µM
TGI (NCI-H23 lung): 7.35 µM
GI50 (NCI-H322M lung): 3.34 µM
TGI (NCI-H322M lung): 21.8 µM
GI50 (NCI-H460 NSCLC): 2.62 µM
TGI (NCI-H460 NSCLC): 6.33 µM
GI50 (NCI-H522 lung): 3.74 µM
TGI (NCI-H522 lung): > 36.9 µM
GI50 (NCI/ADR-RES ovarian): 4.13 µM
TGI (NCI/ADR-RES ovarian): > 44.1 µM
GI50 (OVCAR-3 ovarian): 4.83 µM
TGI (OVCAR-3 ovarian): > 100 µM
GI50 (OVCAR-4 ovarian): 4.8 µM
TGI (OVCAR-4 ovarian): > 100 µM
GI50 (OVCAR-5 ovarian): 3.04 µM
TGI (OVCAR-5 ovarian): > 100 µM
GI50 (OVCAR-8 ovarian): 3.69 µM
TGI (OVCAR-8 ovarian): > 88.7 µM
GI50 (PC-3 prostate): 3.76 µM
TGI (PC-3 prostate): > 100 µM
GI50 (RPMI-8226 leukemia): 3.03 µM
TGI (RPMI-8226 leukemia): 7.45 µM
GI50 (RXF 393 renal): 1.66 µM
TGI (RXF 393 renal): 4.11 µM
GI50 (SF-268 CNS): 3.23 µM
TGI (SF-268 CNS): > 19.7 µM
GI50 (SF-295 CNS): 1.37 µM
TGI (SF-295 CNS): > 23.6 µM
GI50 (SF-539 CNS): 3.68 µM
TGI (SF-539 CNS): > 100 µM
GI50 (SK-MEL-28 melanoma): 3.58 µM
TGI (SK-MEL-28 melanoma): > 30.3 µM
GI50 (SK-MEL-5 melanoma): 1.89 µM
TGI (SK-MEL-5 melanoma): 4.77 µM
GI50 (SK-OV-3 ovarian): 3.51 µM
TGI (SK-OV-3 ovarian): > 50.8 µM
GI50 (SN12C renal): 0.484 µM
TGI (SN12C renal): 4.82 µM
GI50 (SNB-19 CNS): 4.78 µM
TGI (SNB-19 CNS): > 100 µM
GI50 (SNB-75 CNS): 2.68 µM
TGI (SNB-75 CNS): > 28.1 µM
GI50 (SR leukemia): 2 µM
TGI (SR leukemia): 3.82 µM
GI50 (SW-620 colon): 4.53 µM
TGI (SW-620 colon): > 100 µM
GI50 (T-47D breast): 1.57 µM
TGI (T-47D breast): 4.72 µM
GI50 (TK-10 renal): 5.2 µM
TGI (TK-10 renal): > 100 µM
GI50 (U251 glioblastoma): 4.93 µM
TGI (U251 glioblastoma): > 100 µM
GI50 (UACC-257 melanoma): 3.24 µM
TGI (UACC-257 melanoma): 22 µM
GI50 (UACC-62 melanoma): 1.41 µM
TGI (UACC-62 melanoma): 4.21 µM
GI50 (UO-31 renal): 4.31 µM
TGI (UO-31 renal): > 100 µM
